Assay results reported in patent publication US20170239212A1, “[…] AND USE THEREOF AS ANTIVIRAL AGENTS” (priority 2014, published 2017).

Columns and labels:
[1] = tested on: LNCaP human prostate cancer cells; test: Proliferation and morphology of LNCaP cells (Incucyte confluency imaging); assay type: cell-based; conditions: for Persistence of early morphological change (cell flattening) in LNCaP cells: Incucyte images, 0-9 hrs after treatment
Method: (§1) FIGS. 12A-12D show the effect of different compounds on the proliferation and apoptosis of LNCaP cells. […] Time-elapsed images were taken with an Incucyte imaging system every hour for 4 days. The proliferation of LNCaP cells is presented as increase in confluency (read by the instrument) at 80 hrs. Data represent the means±SEM of three independent experiments. […] Apoptosis was measured 2 days after treatment by flow cytometry using 7-AAD and Yo-Pro-1 as described in Materials and Methods. Data represent the means±SEM of three independent experiments.
FIGS. 13A and 13B show the proliferation and morphology of LNCaP cells detected by Incucyte. LNCaP cells were treated with DMSO as control, 300 nM PMA, 1000 nM bryostatin 1 or the bryologue MERLE 21, or with 300 nM PMA in combination with 1000 nM bryostatin 1 or the bryologue MERLE 21. Time-elapsed images were taken by the Incucyte imaging system every hour. […] The arrow indicates the time of treatment. Data are representative of three independent experiments.
The extent of confluency of LNCaP cells (from ATCC, Manassas, Va.) and the morphological changes after treatment were followed in real time using Incucyte (Essen Instruments, Ann Arbor, Mich.). Images of LNCaP cells plated into 24 well plates were taken every 1 hour by the instrument before and after treatment for a total of 4 days. The confluency of the cells was calculated by the instrument's program. The proliferation of LNCaP cells was expressed as the difference in cell confluency before and after treatment.

[2] = tested on: LNCaP human prostate cancer cells; test: Apoptosis of LNCaP cells (flow cytometry, Yo-Pro-1/7-AAD); assay type: cell-based; conditions: 48 hr; for Induction of apoptosis in LNCaP cells: compound alone
Method: as §1
LNCaP cells treated for 48 hours with the different drugs or with DMSO as control were washed and re-suspended in phosphate buffered saline. Yo-Pro-1 (Invitrogen, Carlsbad, Calif.) was added to a final concentration of 1 μM and the cells were incubated for 20 min at 4° C. in the dark. 7-Aminoactinomycin D (7-AAD) (Invitrogen, Carlsbad, Calif.) was then added at a 5 μg/mL final concentration 10 minutes before analysis by flow cytometry using the FACSCalibur system (Becton Dickinson, Mountain View, Calif.). Data were analyzed with FlowJo 7 (Tree Star Inc., Ashland, Oreg.). The Yo-Pro-1 positive cells were considered apoptotic and were expressed as % of total cells. Western blot analysis of treated LNCaP cell lysates was performed as described previously using rabbit anti-cFos, rabbit anti-PKC delta, rabbit anti-phospho-tyrosine 311 of PKC delta or rabbit anti-3-actin antibodies.

U937 cells = test: Inhibition of U937 cell proliferation; assay type: cell-based, human; conditions: for Block of PMA inhibition of U937 cell proliferation: 10 nM PMA with different concentrations of compound; for Inhibition of U937 cell proliferation (total cells as % of control): compound alone, 72 hours
Method: U937 cells (Sundstrom, C.; Nilsson, K.: Establishment and characterization of a human histiocytic lymphoma cell line (U-937). Int. J. Cancer 1976, 17: 565-577), purchased from ATCC (Manassas, Va.) and cultured in RPMI-1640 medium supplemented with 10% FBS (ATCC, Manassas, Va.), were plated in 35 mm dishes at a density of 2×10^5 living cells/ml and treated with different concentrations of the drugs or DMSO. After 72 hours, the number of cells in the supernatant (non-attached cells) and the number of attached cells (after trypsinization) were counted using a Beckman particle counter (Beckman Coulter Inc., Fullerton, Calif.). The number of attached cells is expressed as percent of total cells (FIGS. 8-10).
(§2) U937 cells were treated with PMA (0.1-100 nM), bryostatin 1 (1-1000 nM), the indicated compound (1-1000 nM), 10 nM PMA with different concentrations of bryostatin 1 (1-1000 nM) or 10 nM PMA with different concentrations of indicated compound (1-1000 nM). The number of attached and non-attached cells was counted and the number of total cells was expressed as % of control. The bars and error bars represent the average and the standard error of the mean of five independent experiments (FIGS. 8-10).
(§3) U937 cells (Sundstrom and Nilsson, 1976), purchased from ATCC (Manassas, Va.) and cultured in RPMI-1640 medium supplemented with 10% FBS (ATCC, Manassas, Va.), were plated in 35 mm dishes at a density of 1×10^5 living cells/ml and treated with different concentrations of the drugs or DMSO. After 72 hours, the number of cells in the supernatant (non-attached cells) and the number of attached cells (after trypsinization) were counted using a particle counter. The number of attached cells is expressed as percent of total cells.
U937 cells were treated with PMA (0.01-100 nM), bryostatin 1 (0.1-1000 nM), analogue 12 (MERLE 28) (0.1-1000 nM), 10 nM PMA with different concentrations of bryostatin 1 (0.1-1000 nM) or 10 nM PMA with different concentrations of analogue 12 (0.1-1000 nM). The numbers of attached and non-attached cells were counted and the number of total cells was expressed as % of control. The bars and error bars represent the average and the standard error of the mean of at least three independent experiments.
as §3
as §2, with “at least three” for “five”, “experiments.” for “experiments (FIGS. 8-10).”

CCC/C=C/C=C/C(=O)O[C@H]1/C(=C/C(=O)OC)C[C@H]2C[C@H]([C@@H](C)O)OC(=O)C[C@H](O)C[C@@H]3C[C@H](OC(C)=O)C(C)(C)[C@](O)(C[C@@H]4C/C(=C/C(=O)OC)C[C@H](/C=C/C(C)(C)[C@]1(O)O2)O4)O3 [Bryostatin 1]
Block of PMA inhibition of LNCaP cell growth ([1]; 300 nM PMA combined with 1000 nM compound, 80 hrs): blocked the inhibition of LNCaP cell growth by PMA | Persistence of early morphological change (cell flattening) in LNCaP cells [1]: had reversed by 6 hrs after treatment | Effect on LNCaP cell growth ([1]; compound alone, confluency at 80 hrs): induced a low level of inhibition of cell growth | Block of PMA-induced apoptosis in LNCaP cells ([2]; 300 nM PMA combined with 1000 nM compound): largely blocked the induction of apoptosis by PMA | Induction of apoptosis in LNCaP cells [2]: had little effect | Block of PMA inhibition of U937 cell proliferation (U937 cells): blocks the effect of the phorbol ester | Block of PMA inhibition of U937 cell proliferation (U937 cells; listed as bryostatin 1): able to block the effect of PMA in a dose dependent manner | Inhibition of U937 cell proliferation (total cells as % of control) (U937 cells): has much less effect on either response | Inhibition of U937 cell proliferation (total cells as % of control) (U937 cells; listed as bryostatin 1): not strongly antiproliferative

CCCCCCCCCCCCCC(=O)O[C@@H]1[C@@H](C)[C@@]2(O)[C@@H](C=C(CO)C[C@]3(O)C(=O)C(C)=C[C@@H]23)[C@@H]2C(C)(C)[C@]12OC(C)=O [PMA, phorbol 12-myristate 13-acetate]
Persistence of early morphological change (cell flattening) in LNCaP cells [1]: still evident at 6 hrs but reversing by 9 hrs | Induction of apoptosis in LNCaP cells [2]: induced apoptosis | Inhibition of U937 cell proliferation (total cells as % of control) (U937 cells): inhibits cell proliferation
